Data published in US20080161289A1, “Fused Thiazole Derivatives Having Affinity for the Histamine H3 Receptor” (Glaxo Group Limited, priority 2005, published 2008).

Biological target: T1, histamine H3 receptors (Homo sapiens, UniProt Q9Y5N1)
T1 construct: expressed in transfected cells; host or cells: CHO K1 cells carrying pSwitch, transfected with pGeneH3, induced with mifepristone; clone 3H3; membrane preparation
Experiment: Histamine H3 functional antagonist assay ([35S]-GTPγS SPA on membranes from H3 cells)
Format: biochemical
Conditions: hydrochloride salts tested; H3 functional antagonist assay using membrane prepared from cultured H3 cells; averages of a number of experiments; read-out: functional pKi (fpKi) (converted)
From the text: A membrane preparation containing histamine H3 receptors may be prepared in accordance with the following procedures:
(i) Generation of Histamine H3 Cell Line
DNA encoding the human histamine H3 gene (Huvar, A. et al. (1999) Mol. Pharmacol. 55(6), 1101-1107) was cloned into a holding vector, pCDNA3.1 TOPO (InVitrogen) and its cDNA was isolated from this vector by restriction digestion of plasmid DNA with the enzymes BamHI and Not-1 and ligated into the inducible expression vector pGene (InVitrogen) digested with the same enzymes. The GeneSwitch™ system (a system where in transgene expression is switched off in the absence of an inducer and switched on in the presence of an inducer) was performed as described in U.S. Pat. Nos. 5,364,791; 5,874,534; and 5,935,934. Ligated DNA was transformed into competent DH5α E. coli host bacterial cells and plated onto Luria Broth (LB) agar containing Zeocin™ (an antibiotic which allows the selection of cells expressing the sh ble gene which is present on pGene and pSwitch) at 50 μg ml^−1. Colonies containing the re-ligated plasmid were identified by restriction analysis. DNA for transfection into mammalian cells was prepared from 250 ml cultures of the host bacterium containing the pGeneH3 plasmid and isolated using a DNA preparation kit (Qiagen Midi-Prep) as per manufacturers guidelines (Qiagen).
CHO K1 cells previously transfected with the pSwitch regulatory plasmid (InVitrogen) were seeded at 2×10e6 cells per T75 flask in Complete Medium, containing Hams F12 (GIBCOBRL, Life Technologies) medium supplemented with 10% v/v dialysed foetal bovine serum, L-glutamine, and hygromycin (100 μg ml^−1), 24 hours prior to use. Plasmid DNA was transfected into the cells using Lipofectamine plus according to the manufacturers guidelines (InVitrogen). 48 hours post transfection cells were placed into complete medium supplemented with 500 μg ml^−1 Zeocin™.
10-14 days post selection 10 nM Mifepristone (InVitrogen), was added to the culture medium to induce the expression of the receptor. 18 hours post induction cells were detached from the flask using ethylenediamine tetra-acetic acid (EDTA; 1:5000; InVitrogen), following several washes with phosphate buffered saline pH 7.4 and resuspended in Sorting Medium containing Minimum Essential Medium (MEM), without phenol red, and supplemented with Earles salts and 3% Foetal Clone II (Hyclone). Approximately 1×10e7 cells were examined for receptor expression by staining with a rabbit polyclonal antibody, 4a, raised against the N-terminal domain of the histamine H3 receptor, incubated on ice for 60 minutes, followed by two washes in sorting medium. Receptor bound antibody was detected by incubation of the cells for 60 minutes on ice with a goat anti rabbit antibody, conjugated with Alexa 488 fluorescence marker (Molecular Probes). Following two further washes with Sorting Medium, cells were filtered through a 50 μm Filcon™ (BD Biosciences) and then analysed on a FACS Vantage SE Flow Cytometer fitted with an Automatic Cell Deposition Unit. Control cells were non-induced cells treated in a similar manner. Positively stained cells were sorted as single cells into 96-well plates, containing Complete Medium containing 500 μg ml^−1 Zeocin™ and allowed to expand before reanalysis for receptor expression via antibody and ligand binding studies. One clone, 3H3, was selected for membrane preparation.
(ii) Membrane Preparation from Cultured Cells
All steps of the protocol are carried out at 4° C. and with pre-cooled reagents. The cell pellet is resuspended in 10 volumes of homogenisation buffer (50 mM N-2-hydroxyethylpiperazine-N′-2-ethanesulfonic acid (HEPES), 1 mM ethylenediamine tetra-acetic acid (EDTA), pH 7.4 with KOH, supplemented with 10e-6M leupeptin (acetyl-leucyl-leucyl-arginal; Sigma L2884), 25 μg/ml bacitracin (Sigma B0125), 1 mM phenylmethylsulfonyl fluoride (PMSF) and 2×10e-6M pepstain A (Sigma)). […]

T1 sequence (Q9Y5N1 whole entry): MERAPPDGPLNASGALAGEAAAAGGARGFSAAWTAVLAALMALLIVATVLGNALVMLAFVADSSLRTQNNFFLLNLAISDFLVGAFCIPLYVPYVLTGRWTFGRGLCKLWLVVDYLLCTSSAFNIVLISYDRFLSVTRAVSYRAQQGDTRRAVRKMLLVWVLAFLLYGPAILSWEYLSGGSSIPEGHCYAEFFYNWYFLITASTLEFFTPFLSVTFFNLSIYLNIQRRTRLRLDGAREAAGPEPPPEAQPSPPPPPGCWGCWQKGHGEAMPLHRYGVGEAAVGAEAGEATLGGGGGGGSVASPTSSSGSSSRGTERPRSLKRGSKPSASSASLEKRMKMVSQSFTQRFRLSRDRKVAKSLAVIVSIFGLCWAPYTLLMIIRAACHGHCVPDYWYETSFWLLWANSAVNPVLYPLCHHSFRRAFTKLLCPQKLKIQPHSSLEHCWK

CC(C)N1CCc2nc(-c3ccc(N4CCN(C)C4=O)cc3)sc2CC1 [Example E29, 1-Methyl-3-{4-[6-(1-methylethyl)-5,6,7,8-tetrahydro-4H-[1,3]thiazolo[4,5-d]azepin-2-yl]phenyl}-2-imidazolidinone] was tested. Which Ki did it give?
The Ki was less than 1.26 nM.

How did the Ki turn out when CN1CCN(c2ccc(-c3nc4c(s3)CCN(C3CCCCC3)CC4)cc2)C1=O [Example E30, 1-[4-(6-Cyclohexyl-5,6,7,8-tetrahydro-4H-[1,3]thiazolo[4,5-d]azepin-2-yl)phenyl]-3-methyl-2-imidazolidinone] was run?
The Ki was less than 1.26 nM.

CN1CCN(c2ccc(-c3nc4c(s3)CCN(CC3CC3)CC4)cc2)C1=O [Example E31, 1-{4-[6-(Cyclopropylmethyl)-5,6,7,8-tetrahydro-4H-[1,3]thiazolo[4,5-d]azepin-2-yl]phenyl}-3-methyl-2-imidazolidinone] was tested. Which Ki did it give?
Its Ki is less than 1.26 nM.

Which Ki does the source give for CC(C)CN1CCc2nc(-c3ccc(N4CCN(C)C4=O)cc3)sc2CC1 [Example E32, 1-Methyl-3-{4-[6-(2-methylpropyl)-5,6,7,8-tetrahydro-4H-[1,3]thiazolo[4,5-d]azepin-2-yl]phenyl}-2-imidazolidinone] here?
The Ki was less than 0.316 nM.

N#Cc1cncc(N2CCC(c3nc4c(s3)CCN(C3CCC3)CC4)C2)c1 (stereo not shown) [Example E39, 5-[3-(6-Cyclobutyl-5,6,7,8-tetrahydro-4H-[1,3]thiazolo[4,5-d]azepin-2-yl)-1-pyrrolidinyl]-3-pyridinecarbonitrile] was tested. Which Ki did it give?
The Ki was less than 1.26 nM.

c1ccc(-c2nc3c(s2)CCN(C2CCC2)CC3)cc1 [Example E42, 6-Cyclobutyl-2-phenyl-5,6,7,8-tetrahydro-4H-[1,3]thiazolo[4,5-d]azepine] was tested. Which Ki did it give?
The Ki was less than 31.6 nM.

For CNC(=O)c1ccc(-c2nc3c(s2)CCN(C2CCC2)CC3)cc1 [Example E43, 4-(6-Cyclobutyl-5,6,7,8-tetrahydro-4H-[1,3]thiazolo[4,5-d]azepin-2-yl)-N-methylbenzamide], which Ki is on record?
Its Ki is less than 1.26 nM.

O=C1OCCN1c1ccc(-c2nc3c(s2)CCN(C2CCC2)CC3)cc1 [Example E44, 3-[4-(6-Cyclobutyl-5,6,7,8-tetrahydro-4H-[1,3]thiazolo[4,5-d]azepin-2-yl)phenyl]-1,3-oxazolidin-2-one] was tested. Which Ki did it give?
Its Ki is less than 0.316 nM.

How did the Ki turn out when N#Cc1ccc(-c2nc3c(s2)CCN(C2CCC2)CC3)cc1 [Example E48, 4-(6-Cyclobutyl-5,6,7,8-tetrahydro-4H-[1,3]thiazolo[4,5-d]azepin-2-yl)benzonitrile] was run?
The Ki was less than 1.26 nM.

How did the Ki turn out when N#Cc1ccc(-c2nc3c(s2)CCN(C2CCC2)CC3)cn1 [Example E49, 5-(6-Cyclobutyl-5,6,7,8-tetrahydro-4H-[1,3]thiazolo[4,5-d]azepin-2-yl)-2-pyridinecarbonitrile] was run?
Its Ki is less than 31.6 nM.

CNC(=O)c1ccc(-c2nc3c(s2)CCN(C2CCC2)CC3)cn1 [Example E51, 5-(6-Cyclobutyl-5,6,7,8-tetrahydro-4H-[1,3]thiazolo[4,5-d]azepin-2-yl)-N-methyl-2-pyridinecarboxamide] was tested. Which Ki did it give?
Its Ki is less than 1.26 nM.

How did the Ki turn out when O=C1CCCN1c1ccc(-c2nc3c(s2)CCN(C2CCC2)CC3)cn1 [Example E52, 1-[5-(6-Cyclobutyl-5,6,7,8-tetrahydro-4H-[1,3]thiazolo[4,5-d]azepin-2-yl)-2-pyridinyl]-2-pyrrolidinone] was run?
The Ki was less than 0.316 nM.

For CN1CCN(c2ccc(-c3nc4c(s3)CCN(C3CCC3)CC4)cn2)C1=O [Example E53, 1-[5-(6-Cyclobutyl-5,6,7,8-tetrahydro-4H-[1,3]thiazolo[4,5-d]azepin-2-yl)-2-pyridinyl]-3-methyl-2-imidazolidinone], which Ki is on record?
The Ki was less than 0.316 nM.

How did the Ki turn out when c1cc(N2CCCCC2)ncc1-c1nc2c(s1)CCN(C1CCC1)CC2 [Example E55, 6-Cyclobutyl-2-[6-(1-piperidinyl)-3-pyridinyl]-5,6,7,8-tetrahydro-4H-[1,3]thiazolo[4,5-d]azepine] was run?
Its Ki is less than 1.26 nM.

For c1ncc(-c2nc3c(s2)CCN(C2CCC2)CC3)cn1 [Example E58, 6-Cyclobutyl-2-(5-pyrimidinyl)-5,6,7,8-tetrahydro-4H-[1,3]thiazolo[4,5-d]azepine], which Ki is on record?
Its Ki is less than 31.6 nM.

Which Ki does the source give for c1nc(N2CCCCC2)ncc1-c1nc2c(s1)CCN(C1CCC1)CC2 [Example E61, 6-Cyclobutyl-2-[2-(1-piperidinyl)-5-pyrimidinyl]-5,6,7,8-tetrahydro-4H-[1,3]thiazolo[4,5-d]azepine] here?
The Ki was less than 31.6 nM.

N#Cc1cncc(N2CCC(c3nc4c(s3)CCN(C3CCC3)CC4)CC2)c1 [Example E66, 5-[4-(6-Cyclobutyl-5,6,7,8-tetrahydro-4H-[1,3]thiazolo[4,5-d]azepin-2-yl)-1-piperidinyl]-3-pyridinecarbonitrile] was tested. Which Ki did it give?
Its Ki is less than 1.26 nM.

For N#Cc1ccc(N2CCC(c3nc4c(s3)CCN(C3CCC3)CC4)CC2)cc1 [Example E67, 4-[4-(6-Cyclobutyl-5,6,7,8-tetrahydro-4H-[1,3]thiazolo[4,5-d]azepin-2-yl)-1-piperidinyl]benzonitrile], which Ki is on record?
The Ki was less than 0.316 nM.

For Cc1ccccc1NC(=O)N1CCC(c2nc3c(s2)CCN(C2CCC2)CC3)CC1 [Example E70, 4-(6-Cyclobutyl-5,6,7,8-tetrahydro-4H-[1,3]thiazolo[4,5-d]azepin-2-yl)-N-(2-methylphenyl)-1-piperidinecarboxamide], which Ki is on record?
Its Ki is less than 1.26 nM.

With N#Cc1ccc(-c2nc3c(s2)CCN(C2CCCC2)CC3)nc1 [Example E74, 6-(6-Cyclopentyl-5,6,7,8-tetrahydro-4H-[1,3]thiazolo[4,5-d]azepin-2-yl)-3-pyridinecarbonitrile] as the compound, how does the Ki read?
Its Ki is less than 31.6 nM.

CNC(=O)c1ccc(-c2nc3c(s2)CCN(C2CCC2)CC3)nc1 [Example E76, 6-(6-Cyclobutyl-5,6,7,8-tetrahydro-4H-[1,3]thiazolo[4,5-d]azepin-2-yl)-N-methyl-3-pyridinecarboxamide] was tested. Which Ki did it give?
The Ki was less than 31.6 nM.

How did the Ki turn out when CNC(=O)c1ccc(N2CCC(c3nc4c(s3)CCN(C3CCC3)CC4)CC2)cn1 [Example E77, 5-[4-(6-Cyclobutyl-5,6,7,8-tetrahydro-4H-[1,3]thiazolo[4,5-d]azepin-2-yl)-1-piperidinyl]-N-methyl-2-pyridinecarboxamide] was run?
Its Ki is less than 1.26 nM.

Cc1ccccc1C(=O)N1CCC(c2nc3c(s2)CCN(C2CCC2)CC3)CC1 [Example E78, 6-Cyclobutyl-2-{1-[(2-methylphenyl)carbonyl]-4-piperidinyl}-5,6,7,8-tetrahydro-4H-[1,3]thiazolo[4,5-d]azepine] was tested. Which Ki did it give?
Its Ki is less than 0.316 nM.

For Cc1cc(C(=O)N2CCC(c3nc4c(s3)CCN(C3CCC3)CC4)CC2)[nH]n1 [Example E79, 6-Cyclobutyl-2-{1-[(3-methyl-1H-pyrazol-5-yl)carbonyl]-4-piperidinyl}-5,6,7,8-tetrahydro-4H-[1,3]thiazolo[4,5-d]azepine], which Ki is on record?
The Ki was less than 1.26 nM.

How did the Ki turn out when O=C(c1ccc(Cl)cc1)N1CCC(c2nc3c(s2)CCN(C2CCC2)CC3)CC1 [Example E80, 2-{1-[(4-Chlorophenyl)carbonyl]-4-piperidinyl}-6-cyclobutyl-5,6,7,8-tetrahydro-4H-[1,3]thiazolo[4,5-d]azepine] was run?
Its Ki is less than 1.26 nM.

Which Ki does the source give for O=C(c1cccc(Cl)c1)N1CCC(c2nc3c(s2)CCN(C2CCC2)CC3)CC1 [Example E81, 2-{1-[(3-Chlorophenyl)carbonyl]-4-piperidinyl}-6-cyclobutyl-5,6,7,8-tetrahydro-4H-[1,3]thiazolo[4,5-d]azepine] here?
Its Ki is less than 0.316 nM.

How did the Ki turn out when Cc1cccc(C(=O)N2CCC(c3nc4c(s3)CCN(C3CCC3)CC4)CC2)c1 [Example E82, 6-Cyclobutyl-2-{1-[(3-methylphenyl)carbonyl]-4-piperidinyl}-5,6,7,8-tetrahydro-4H-[1,3]thiazolo[4,5-d]azepine] was run?
Its Ki is less than 1.26 nM.

Cc1cccnc1C(=O)N1CCC(c2nc3c(s2)CCN(C2CCC2)CC3)CC1 [Example E83, 6-Cyclobutyl-2-{1-[(3-methyl-2-pyridinyl)carbonyl]-4-piperidinyl}-5,6,7,8-tetrahydro-4H-[1,3]thiazolo[4,5-d]azepine] was tested. Which Ki did it give?
Its Ki is less than 1.26 nM.
